Measurements: patent US10300065B2, “Method of treating or prevention of atherothrombotic events in patients with history of myocardial infarction” (ASTRAZENECA AB, priority 2015, dated 2019)

Tests used:
[1] = tested on: patients with a history of myocardial infarction; test: PEGASUS-TIMI 54 trial, efficacy endpoints (intention-to-treat / full analysis set); assay type: in vivo, human
Description: The PEGASUS-TIMI 54 trial (also referred to as the PEGASUS trial or PEGASUS study herein) was a randomized, double-blind, placebo-controlled multinational clinical trial that enrolled over 21,000 patients at 1,161 sites in 31 countries. The protocol was approved by the relevant ethics committees at all participating sites. In the U.S., the PEGASUS trial was assigned a ClinicalTrials.gov number of NCT01225562.
Patients could be randomized regardless of their prior adenosine diphosphate (ADP) receptor blocker therapy or a lapse in therapy.
Randomization was performed using a central computerized telephone or web based system, and allocation was double-blind.
All patients enrolled in the PEGASUS trial were instructed to take open label aspirin at a dose of 75 to 150 mg daily.
A total of 1360 primary endpoint events would be required to provide approximately 90% power to detect a 20% relative risk reduction with the 90 mg twice daily dose and approximately 83% power to detect a 19% relative risk reduction with the 60 mg twice daily dose when each dose was compared individually with placebo. The primary efficacy analysis was conducted on an intention-to-treat basis, with each of the two doses individually compared to placebo, as a time to event analysis from randomization to the first occurrence of any element of the primary composite endpoint: cardiovascular death, myocardial infarction, or stroke. […] An exploratory analysis of both doses combined compared with placebo was prespecified.

platelets [2] = settings: either ticagrelor group
thromboxane B2 = settings: either ticagrelor group
[3] = room temperature; crystalline powder; cited from earlier work
platelets [4] = settings: for most patients; cited from earlier work
[5] = cited from earlier work
[6] = 90 mg bid (N = 7050), at 3 years
[7] = 90 mg bid vs. placebo (N = 6988)

## CCCSc1nc(N[C@@H]2C[C@H]2c2ccc(F)c(F)c2)c2nnn([C@@H]3C[C@H](OCCO)[C@@H](O)[C@H]3O)c2n1 [Ticagrelor, (1S,2S,3R,5S)-3-[7-{[(1R,2S)-2-(3,4-difluorophenyl)cyclopropyl]amino}-5-(propylthio)-3H-[1,2,3]-triazolo[4,5-d]pyrimidin-3-yl]-5-(2-hydroxyethoxy)cyclopentane-1,2-diol]
[1]; 90 mg bd, 361 days or more
  Composite of CV Death/MI/Stroke, landmark: Patients with events: 295
  Composite of CV Death/MI/Stroke, landmark: Patients with events (%): (4.4%)
[1]; 90 mg bd, at 36 months
  Stent thrombosis: KM %: 0.6%
[1]; 90 mg bd, cumulative from day 361 to day 720
  Composite of CV Death/MI/Stroke, landmark: KM % at 24 months: 2.4%
[1]; 90 mg bd, cumulative from day 361 to day 1080
  Composite of CV Death/MI/Stroke, landmark: KM % at 36 months: 5.2%
[1]; 90 mg bid
  MI: ARR (%): 0.85%
  MI: NNT: 118
  Stroke: ARR (%): 0.33%
  Stroke: NNT: 303
[1]; 90 mg bid (N = 7050)
  All Stroke: 3-year Kaplan-Meier estimate: (1.61) %
  All Stroke: n: 100
  Cardiovascular Death or Myocardial infarction: 3-year Kaplan-Meier estimate: (6.79) %
  Cardiovascular Death or Myocardial infarction: n: 424
  Cardiovascular Death, Myocardial infarction, or Stroke: 3-year Kaplan-Meier estimate: (7.85) %
  Cardiovascular Death, Myocardial infarction, or Stroke: n: 493
  Cardiovascular Death: 3-year Kaplan-Meier estimate: (2.94) %
  Cardiovascular Death: n: 182
  Coronary Heart Disease Death or Myocardial infarction: 3-year Kaplan-Meier estimate: (5.59) %
  Coronary Heart Disease Death or Myocardial infarction: n: 350
  Coronary Heart Disease Death, Myocardial infarction, or Stroke: 3-year Kaplan-Meier estimate: (6.99) %
  Coronary Heart Disease Death, Myocardial infarction, or Stroke: n: 438
  Coronary Heart Disease Death: 3-year Kaplan-Meier estimate: (1.53) %
  Coronary Heart Disease Death: n: 97
  Death from any cause: 3-year Kaplan-Meier estimate: (5.15) %
  Death from any cause: n: 326
  Hospitalization for Unstable Angina: n: 33
  Ischemic Stroke: 3-year Kaplan-Meier estimate: (1.41) %
  Ischemic Stroke: n: 88
  Myocardial infarction: 3-year Kaplan-Meier estimate: (4.40) %
  Myocardial infarction: n: 275
  Transient Ischemic Attack: n: 17
  Urgent Coronary Revascularization for Unstable Angina: n: 74
[1]; [6]
  Hospitalization for Unstable Angina: (%): (0.50) %
  Transient Ischemic Attack: (%): (0.27) %
  Urgent Coronary Revascularization for Unstable Angina: (%): (1.16) %
[1]; 90 mg bid (N = 7050), listed as ticagrelor
  Cardiovascular Death, Myocardial infarction, or Stroke: 3-year Kaplan-Meier estimate: 7.85%
[1]; 90 mg bid vs Placebo
  All Stroke: HR: 0.82
  Cardiovascular Death or Myocardial infarction: HR: 0.85
  Cardiovascular Death, Myocardial infarction, or Stroke: HR: 0.85
  Cardiovascular Death: HR: 0.87
  Coronary Heart Disease Death or Myocardial infarction: HR: 0.81
  Coronary Heart Disease Death, Myocardial infarction, or Stroke: HR: 0.82
  Coronary Heart Disease Death: HR: 0.73
  Coronary stent thrombosis: RRR: 36%
  Death from any cause: HR: 1.00
  Hospitalization for Unstable Angina: HR: 0.89
  Ischemic Stroke: HR: 0.85
  Myocardial infarction: HR: 0.81
  Transient Ischemic Attack: HR: 1.00
  Urgent Coronary Revascularization for Unstable Angina: HR: 0.97
  coronary heart disease death, myocardial infarction, or stroke: RRR: 18%
[1]; [7]
  Irreversible harm (CV death, MI, stroke, ICH, or fatal bleeding): HR: 0.88
  Irreversible harm (CV death, MI, stroke, ICH, or fatal bleeding): RRR (%): 12%
  Net clinical benefit (CV death, MI, stroke, or TIMI major bleeding): HR: 1.00
  Net clinical benefit (CV death, MI, stroke, or TIMI major bleeding): RRR (%): 0%
[1]; 90 mg bid, intention-to-treat data
  ischemic events prevented if 10,000 patients were started on treatment versus placebo: 40
Platelets [2]
  VerifyNow Aspirin assay results vs placebo group: no differences
Thromboxane B2
  serum thromboxane B2 levels vs placebo group: no differences
[3]
  aqueous solubility: approximately 10 μg/mL
Platelets [4]
  onset of antiplatelet effect: ≤ 2 h
[5]; high-fat meal
  increase in AUC: 21%
[5]; human, in vivo
  mean absolute bioavailability: about 36%
  steady state volume of distribution: 88 L
[5]; in patients after administration of ticagrelor
  median tmax: 1.5 h
